Like-named read-outs stand apart in the source and are kept apart here.
What was measured:
Aurora A = molecular target: T1, Aurora A (Homo sapiens, UniProt O14965); assay: HotSpot kinase assay (Reaction Biology), Aurora A; assay type: biochemical; settings: in vitro, HotSpot method
T1 construct: purchased Reaction Biology Inc
T1 sequence (O14965 1-403): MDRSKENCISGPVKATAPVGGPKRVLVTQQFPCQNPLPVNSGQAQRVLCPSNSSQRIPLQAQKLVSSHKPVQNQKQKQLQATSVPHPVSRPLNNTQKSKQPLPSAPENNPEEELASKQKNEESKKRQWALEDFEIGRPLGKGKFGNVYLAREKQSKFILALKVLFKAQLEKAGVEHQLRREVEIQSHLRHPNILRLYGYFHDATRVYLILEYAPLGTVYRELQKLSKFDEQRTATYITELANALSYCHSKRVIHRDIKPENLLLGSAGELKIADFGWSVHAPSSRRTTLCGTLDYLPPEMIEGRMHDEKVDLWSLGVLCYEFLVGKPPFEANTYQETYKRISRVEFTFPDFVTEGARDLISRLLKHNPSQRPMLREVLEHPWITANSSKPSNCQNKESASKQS

[1] = test system: MDA-MB-468 tumor xenografts; assay: MDA-MB-468 tumor xenografts in nude mice; assay type: in vivo; settings: 50 mpk i.p. daily for 14 days
Experimental: (§1) Female nude mice (Charles River Laboratories, Wilmington, MA) were maintained and treated in accordance with the Institutional Animal Care and Use Committee procedures and guidelines. Exponentially growing MDA-MB-468 cells were harvested via trypsinization, pelleted at 400 g for 5 min. Cell pellets were re-suspended in DPBS (Invitrogen) at 10 x10^6 cells per 200 μl, and injected into right flank of mice. The tumor xenografts were monitored with an electronic caliper measurements and tumor volume (V) was calculated using the formula V= (W × L^2)/2, where width is the largest diameter and length is the smallest diameter. When the tumors reached ~ 250 mm^3, the animals were randomized and treatment schedules were implemented. Treatments consisted of intraperitoneal (i.p.) injections of vehicle control (50% polyethylene glycol (PG) + 15% 2-hydroxypropyl-beta-cyclodextrin (HPCD) (n=5) or AJI-100 (n=6) at 50 mg/kg, everyday for 14 days.

MDA-MB-468 cells [2] = assay: Anchorage-dependent proliferation, MTT assay, MDA-MB-468; assay type: cell-based; settings: Homo sapiens, 48 h; for IC50: MDA-MB-468, MTT
Experimental: (§2) Cells were cultured in 96 well plates at a density of 2,000 cells/ well. The cells with siRNA transfection or with the inhibitor treatment were monitored for viability using MTT at indicated time points. At the given time points, MTT reagent was added to the media and allowed to incubate for 3 h at 37° C in a humidified incubator at 5% CO2. The medium was then removed and MTT crystals were dissolved in DMSO (Sigma). Cell viability was quantified by reading the plates at an absorbance of 540 nm on a μQuant microplate reader using KC4 data analysis software (Bio-Tek Instruments). The 540 nm absorbance of vehicle-treated wells was used to define 100% proliferation. Each condition was performed in replicates of six wells.

[3] = test system: P-Histone H3 (Ser-10), Aurora B substrate; assay: Western blot, phosphorylation of Histone H3 in MDA-MB-468 cells; assay type: cell-based, human; settings: for effect on phosphorylation of Histone H3 (Ser-10): MDA-MB-468, increasing concentrations, 2 h
Experimental: (§3) Cells were plated in 6 cm dishes at a density of 2 × 10^5 cells/dish. Aurora A activity was determined by measuring autophosphorylation of Aurora A on Thr288 in cells that were synchronized by treatment with nocodazole (100 ng/mL) for 20 h prior to the treatment with Aurora inhibitors, whereas Aurora B activity was determined by measuring phosphorylation of histone H3 on Ser-10 (p-HH3). […] Cells were harvested after 2 h of treatment and processed for SDS−PAGE and Western blotting.
(§4) Cells were harvested from experiments of ectopic expression or knockdown using siRNA or the treatment with the inhibitors, washed, and then lysed using lysis buffer as previously described. The protein concentration of the lysate was measured, and the lysate was mixed with gel electrophoresis loading buffer, boiled for 5 minutes, separated by SDS-PAGE, and transferred to nitrocellulose membranes.

JAK2 = molecular target: T2, JAK2 (Homo sapiens, UniProt O60674); assay: HotSpot kinase assay (Reaction Biology), JAK2; assay type: biochemical; settings: in vitro, HotSpot method
T2 construct: purchased Reaction Biology Inc

[4] = test system: P-STAT3 (Y705), JAK2 substrate; assay: Western blot, phosphorylation of STAT3 in MDA-MB-468 cells; assay type: cell-based, human
Experimental: as §3, §4

Aurora B = molecular target: T3, Aurora B (Homo sapiens, UniProt Q96GD4); assay: HotSpot kinase assay (Reaction Biology), Aurora B; assay type: biochemical; settings: in vitro, HotSpot method
T3 construct: purchased Reaction Biology Inc

MDA-MB-468 cells [5] = assay: Soft agar anchorage-independent growth, MDA-MB-468; assay type: cell-based, human
Experimental: For analysis of anchorage-independent growth, log-phase growing cells were trypsinized, and triplicates of 1.5 × 10^3 cells per well were seeded in regular growth medium containing 0.3% agar (Sigma) and drug added at the indicated concentrations, as previously described. The cells were allowed to incubate at 37° C for 3 weeks and fed once per week with the inhibitor before 1 mg/ml MTT (Sigma) solution was added overnight to facilitate colony counting. Colonies were scored and counted according to size, as previously described.

MDA-MB-468 cells [6] = assay: Matrigel Transwell invasion, MDA-MB-468; assay type: cell-based, human
Experimental: Cells were transfected with Aurora A and JAK2 for 48 h or with siRNA for 72 h or treated with the compounds for 24 h and then were trypsinized and resuspended in serum-free medium and placed in the upper chamber of the Matrigel-coated (0.8 μg/μL, BD Biosciences, San Diego, CA) Transwell insert (from 2 to 5 × 10^4 cells/well) and with 0.5% DMSO or the compounds at the indicated dose. Medium containing 10%FBS was placed in the lower chamber. […] Invading cells in the membrane were fixed with 100% methanol and stained with fresh prepared 0.2% crystal violet. Noninvasive cells in the upper chamber were removed by wiping the upper side of the membrane with a cotton swab, and cells located on the underside of the filter were observed and photographed under Olympus stereo microscope. The number of invading cells was counted using Image-Pro analysis software.

[7] = Mouse weights during xenograft study; assay type: in vivo, nude mice; settings: 50 mpk i.p. daily, over the 14-day treatment period; vehicle 3.33 %
Experimental: as §1

HT-29 cells [8] = assay: Soft agar anchorage-independent growth, HT-29; assay type: cell-based, human; settings: HT-29, Ruxolitinib 20 μM
Experimental: The cells were allowed to incubate at 37° C for 3 weeks and fed once per week with the inhibitor before 1 mg/ml MTT (Sigma) solution was added overnight to facilitate colony counting. Colonies were scored and counted according to size, as previously described.

P-STAT3 = assay: Western blot, phosphorylation of STAT3 in HT-29 cells; assay type: cell-based, human; settings: HT-29, Ruxolitinib 20 μM
Experimental: as §3, §4

P-Histone H3 = assay: Western blot, phosphorylation of Histone H3 in HT-29 cells; assay type: cell-based, human; settings: HT-29, Ruxolitinib 20 μM
Experimental: as §3, §4

[9] = test system: Aurora A auto-phosphorylation (Thr-288); assay: Western blot, Aurora A auto-phosphorylation in nocodazole-synchronized MDA-MB-468 cells; assay type: cell-based, human; settings: MDA-MB-468, nocodazole-synchronized, 2 h
Experimental: as §3, §4

[10] = test system: PARP cleavage and Caspase 3 activation in MDA-MB-468 cells; assay: Apoptosis by Western blot of PARP cleavage and Caspase 3 activation, MDA-MB-468; assay type: cell-based, human; settings: MDA-MB-468, single agent, low concentration, e.g. Ruxolitinib 0.4 μM
Experimental: Cells were harvested from experiments of ectopic expression or knockdown using siRNA or the treatment with the inhibitors, washed, and then lysed using lysis buffer as previously described. The protein concentration of the lysate was measured, and the lysate was mixed with gel electrophoresis loading buffer, boiled for 5 minutes, separated by SDS-PAGE, and transferred to nitrocellulose membranes. […] To evaluate the effect of inhibitors on cell cycle progression, cells were treated with inhibitors at indicated dose or DMSO control and then harvested, fixed with 70% ethanol pretreated with RNase, and stained with propidium iodide (PI) (Sigma) as previously described for flow cytometry analysis. For the detection of apoptosis, cells were cultured for 24 h in medium with inhibitors at indicated dose or DMSO control and harvested for SDS-PAGE and Western blotting. The siRNA or drug treatment-induced apoptosis was detected by Western blot analysis of the cleavage of PARP and caspase-3.

HT-29 cells [11] = assay: Matrigel Transwell invasion, HT-29; assay type: cell-based, human; settings: HT-29, Ruxolitinib 40 μM
Description: Medium containing 10%FBS was placed in the lower chamber. […] Invading cells in the membrane were fixed with 100% methanol and stained with fresh prepared 0.2% crystal violet. Noninvasive cells in the upper chamber were removed by wiping the upper side of the membrane with a cotton swab, and cells located on the underside of the filter were observed and photographed under Olympus stereo microscope. The number of invading cells was counted using Image-Pro analysis software.

HT29 cells = assay: Anchorage-dependent proliferation, MTT assay, HT29; assay type: cell-based; settings: Homo sapiens, HT-29, 48 h
Experimental: as §2

[12] = Homo sapiens, MDA-MB-468, Ruxolitinib 30 μM

T2 sequence (O60674 whole entry): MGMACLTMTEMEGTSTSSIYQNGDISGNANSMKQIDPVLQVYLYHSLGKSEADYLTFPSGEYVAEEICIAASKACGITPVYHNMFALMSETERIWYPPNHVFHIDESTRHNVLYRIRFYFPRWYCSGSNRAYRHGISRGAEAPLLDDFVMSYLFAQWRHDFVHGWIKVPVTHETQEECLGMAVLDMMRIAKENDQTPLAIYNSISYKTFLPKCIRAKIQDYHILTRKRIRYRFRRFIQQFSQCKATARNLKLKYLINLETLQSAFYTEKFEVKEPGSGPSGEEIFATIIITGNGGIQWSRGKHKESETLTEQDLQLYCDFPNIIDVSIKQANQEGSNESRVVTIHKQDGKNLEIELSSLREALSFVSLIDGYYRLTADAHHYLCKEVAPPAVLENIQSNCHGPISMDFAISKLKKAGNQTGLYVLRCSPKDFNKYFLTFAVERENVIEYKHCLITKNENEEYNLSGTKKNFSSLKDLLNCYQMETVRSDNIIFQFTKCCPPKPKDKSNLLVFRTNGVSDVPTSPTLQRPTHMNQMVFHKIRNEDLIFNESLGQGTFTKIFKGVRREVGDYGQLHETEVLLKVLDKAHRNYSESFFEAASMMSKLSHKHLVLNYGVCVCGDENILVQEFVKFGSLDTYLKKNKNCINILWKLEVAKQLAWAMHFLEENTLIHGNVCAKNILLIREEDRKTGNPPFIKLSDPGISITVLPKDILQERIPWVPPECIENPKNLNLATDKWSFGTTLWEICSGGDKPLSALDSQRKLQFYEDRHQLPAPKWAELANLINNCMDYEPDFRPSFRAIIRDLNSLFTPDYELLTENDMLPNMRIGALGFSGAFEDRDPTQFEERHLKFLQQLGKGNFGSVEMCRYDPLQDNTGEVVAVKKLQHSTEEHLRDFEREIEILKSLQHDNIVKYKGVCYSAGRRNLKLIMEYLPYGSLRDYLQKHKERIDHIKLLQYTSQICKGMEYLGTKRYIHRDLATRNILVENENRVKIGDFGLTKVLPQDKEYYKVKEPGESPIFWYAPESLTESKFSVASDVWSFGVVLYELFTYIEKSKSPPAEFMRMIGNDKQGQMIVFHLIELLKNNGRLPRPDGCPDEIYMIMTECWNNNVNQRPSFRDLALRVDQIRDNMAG
T3 sequence (Q96GD4 whole entry): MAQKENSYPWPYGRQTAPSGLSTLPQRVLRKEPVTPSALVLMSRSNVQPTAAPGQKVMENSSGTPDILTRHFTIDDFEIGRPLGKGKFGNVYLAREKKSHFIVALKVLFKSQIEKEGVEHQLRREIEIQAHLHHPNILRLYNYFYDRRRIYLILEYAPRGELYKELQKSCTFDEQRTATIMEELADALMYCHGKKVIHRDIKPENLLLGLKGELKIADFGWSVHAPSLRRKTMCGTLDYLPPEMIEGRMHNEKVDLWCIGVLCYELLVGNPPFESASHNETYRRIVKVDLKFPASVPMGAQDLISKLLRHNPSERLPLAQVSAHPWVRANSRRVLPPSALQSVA

Q: With `NC(=O)c1ccc(Nc2ncc(F)c(Nc3ccccc3)n2)cc1` [AJI-100] as the compound, how does the IC50 (Aurora A) read?
A: Its IC50 is 5.4 nM.

Q: And the “tumor volume after 14 day treatment, representative mouse” value ([1]; regressed from 222, vehicle grew 211 to 357)?
A: The value was 158 mm3.

Q: And the “average % change in tumor volume (regression)” value ([1]; vehicle grew by 40 %)?
A: Its value is 9%.

Q: And the IC50 (MDA-MB-468 cells [2])?
A: Its IC50 is 3600 nM.

Q: What about the “effect on phosphorylation of Histone H3 (Ser-10)” value [3] of the same compound?
A: Its value is “decreased”.

Q: What about the IC50 (JAK2) of the same compound?
A: Its IC50 is 51 nM.

Q: What about the “effect on phosphorylation of STAT3 (Y705)” value ([4]; MDA-MB-468, increasing concentrations, 2 h) of the same compound?
A: The value was “decreased”.

Q: And the IC50 (Aurora B)?
A: The IC50 was 14 nM.

Q: What about the “colony formation in soft agar” value (MDA-MB-468 cells [5]; MDA-MB-468, increasing concentrations) of the same compound?
A: Its value is “inhibited colony formation”.

Q: What about the inhibition at 5 µM (MDA-MB-468 cells [6]; Homo sapiens, MDA-MB-468, 5 μM, 48 hr) of the same compound?
A: The inhibition at 5 µM was 41.1%.

Q: What about the inhibition at 5 µM (MDA-MB-468 cells [6]; Homo sapiens, MDA-MB-468, 5 μM, 72 hr) of the same compound?
A: The inhibition at 5 µM was 89.8%.

Q: What about the invaded cells (MDA-MB-468 cells [6]; MDA-MB-468, 5 μM, 48 hr, vehicle 723) of the same compound?
A: The invaded cells was 426 cells.

Q: And the invaded cells (MDA-MB-468 cells [6]; MDA-MB-468, 5 μM, 72 hr, vehicle 1020)?
A: Its invaded cells is 104 cells.

Q: And the “increase in mouse weights” value [7]?
A: Its value is 0.04%.

Q: What does the source list for `N#CC[C@H](C1CCCC1)n1cc(-c2ncnc3[nH]ccc23)cn1` [Ruxolitinib]?
A: soft agar colonies (HT-29 cells [8]; vehicle 129): 72 colonies; inhibition at 20 µM (HT-29 cells [8]; Homo sapiens, read-out: inhibition of soft agar colonies): 44.2%; IC50 (MDA-MB-468 cells [2]): 26000 nM; inhibition at 35 µM (MDA-MB-468 cells [2]; MDA-MB-468, Ruxolitinib 35 μM): 51.2%; effect on P-STAT3 (P-STAT3): inhibited P-STAT3; effect on P-Histone H3 (P-Histone H3): not P-Histone H3; effect on P-Histone H3 ([3]; MDA-MB-468, Ruxolitinib 30 μM): not P-Histone H3; effect on phosphorylation of Histone H3 (Ser-10) [3]: not that of Histone H3; effect on auto-phosphorylation of Aurora A [9]: not that of Histone H3 or the auto-phosphorylation of Aurora A; effect on P-STAT3 [4]: inhibited P-STAT3; effect on phosphorylation of STAT3 (Y705) [4]: able to inhibit the phosphorylation of STAT3; PARP cleavage [10]: neither Alisertib nor Ruxolitinib induced PARP cleavage; invaded cells (HT-29 cells [11]; vehicle 1066): 305 cells; inhibition at 40 µM (HT-29 cells [11]; Homo sapiens): 71.4%; IC50 (HT29 cells; HT29, MTT): 44700 nM; inhibition at 20 µM (HT29 cells; HT29, Ruxolitinib 20 μM): 14.3%; inhibition at 30 µM (MDA-MB-468 cells [5]; [12]): 23.7%; soft agar colonies (MDA-MB-468 cells [5]; MDA-MB-468, Ruxolitinib 30 μM, vehicle 131): 100 colonies; inhibition at 30 µM (MDA-MB-468 cells [6]; [12]): 48.6%; invaded cells (MDA-MB-468 cells [6]; MDA-MB-468, Ruxolitinib 30 μM, vehicle 344): 177 cells

Reference: publication PMC4102782, “Dual Aurora A and JAK2 kinase blockade effectively suppresses malignant transformation” (Oncotarget, 2014)
